Measurements reported in patent publication US11291666B2, “Uses” (INTRA-CELLULAR THERAPIES, INC., priority 2016, dated 2022).
Entries after “also recorded” stand apart in the source; their conditions may differ.

Experiments:
BV2 cells [1] = experiment: RNAseq analysis of LPS-stimulated BV2 cells, differentially expressed transcripts; format: cell-based, mouse; settings: for genes affected by both Compound 214 and Rolipram / genes significantly affected by this compound but not the other (Compound 214 / Rolipram) / overlap of genes affected by Compound 214 and Rolipram: LPS-stimulated BV2 cells
Experimental: (§1) The test compound is added first, the LPS is added one hour later, and the cells and/or media are harvested at five hours from commencement of the experiment.
RNASeq: Flashfreeze BV2cells, isolate RNA, prepare a library using polyA selection, and conduct 1×50 bp single read sequencing on the Illumina HiSeq 2500 in High Output mode (using V4 chemistry). Genes are mapped to reference genome (GRCm38) using CLC Genomics Server. Number of reads per sample average ˜17 million. Differential gene expression analysis is performed using DESeq2software (Bioconductor.org). Differentially expressed genes (p<0.01, Waldtest) are reported as log 2(fold change).

BV2 cells [2] = experiment: Quantitative PCR of inflammatory cytokine mRNA in LPS-treated BV2 cells; format: cell-based, mouse
Experimental: Levels of IL1β are measured using quantitative PCR of IL1β mRNA. IL1β is considered a marker of inflammation. Results are depicted in FIG. 2 (RQ: relative quantification of changes in gene expression in treated versus control samples; ***p<0.01 vs control, √p<0.01 vs LPS alone; ANOVA with Newman-Keuls post-hoc test).
BV2 cells are pretreated with compound, ITI-214 or rolipram, a PDE4 inhibitor, then stimulated with 50 ng/ml LPS for 4 hours. Expression levels of TNF, IL1β, Ccl2, and IL6 are measured. Normalized mRNA levels are shown as change from vehicle (ΔΔCt) and compared using a one-way ANOVA. […] The mRNA transcripts for TNF, IL1β, and Ccl2—three of the four cytokines studied in vivo—were elevated in BV2 cells treated with 50 ng/ml LPS.
as §1
(§2) RTqPCR: RNA from BV2 cells purified using RNeasyKit (Qiagen) and from mouse tissue using TRIzol (Ambion). TaqMan primer-probe assays from Thermo Fisher. mRNA levels for all conditions are normalized to GAPDH and to vehicle control (ΔΔCt). Data are analyzed statistically using one-way ANOVA with the Bonferroni post-test for multiple comparisons.

[3] = system: IL1β mRNA in the hippocampus; experiment: IL1β expression in hippocampus in vivo after LPS (quantitative PCR); settings: mice; LPS 2 mg/kg s.c.; 10 mg/kg i.p.; six hours post injection; FIG. 3
Experimental: At six hours post injection, levels of IL1β in the hippocampus are measured via quantitative PCR of IL1β mRNA. IL1β is considered a marker of inflammation. Data are presented in FIG. 3 (***p<0.01 vs LPS alone, ANOVA with Newman-Keuls post-hoc test).

[4] = system: inflammatory gene expression in mouse striatum; experiment: Inflammatory gene expression in mouse striatum after LPS (Q-PCR); format: in vivo
Experimental: as §2
The results are based upon an evaluation of samples using Q-PCR.
Data from a further experiment measuring the effect of PDE1 inhibition on inflammatory gene expression in mouse striatum is depicted in FIG. 7. […] Striatal tissue is isolated and flash frozen, and RNA is extracted. Measurements from RT-qPCR are shown as log 2 fold change (2ΔΔCt). n=4 *p<0.05, **p<0.01, ***p<0.001, ****p<0.0001.
Data from yet another experiment measuring the effect of PDE1 inhibition on inflammatory gene expression in mouse striatum is depicted in FIG. 8. […] Striatal tissue is analyzed for mRNA levels of TNF, IL1β, Ccl2, and IL6. Expression levels are shown as change in Q-PCR signal from vehicle (ΔΔCt) and compared using an ANOVA. * p<0.05, **p<0.01, ***p<0.001.

BV2 cells [5] = experiment: RT-qPCR of selected genes in BV2 cells with ITI-214, cyclase activators and PKA/PKG inhibitors; format: cell-based, mouse
Experimental: In a further experiment a group of genes is selected for further analysis by RT-qPCR. For comparison, genes are analyzed which have been implicated in the scientific literature in microglial and astrocyte activation, including genes in the complement pathway.
All sample values are normalized to an average of 3 reference genes and to vehicle control (ΔΔCt). The error bars represent the mean+/−SEM (n=4). From left to right, for each cytokine grouping, the bars indicate samples treated with: LPS, 0.1 μM 214+LPS, 0.4 μM 214+LPS, 1.1 μM 214+LPS, 3.3 μM 214+LPS, 10 μM 214+LPS, for each particular gene shown on the X-axis. Significant changes between LPS and 10 μM ITI-214+LPS (A) and Vehicle and 10 μM ITI-214 (B) are marked on the X-axis gene names and are calculated using a one-way ANOVA. * p<0.05, **p<0.01, ***p<0.001, ****p<0.0001.
In one particular experiment, BV2 cells are treated with 10 μM forskolin (FSK) to activate adenylyl cyclases, 5 μM DEANO to activate soluble guanylyl cyclase, or 100 nM atrial natriuretic peptide (ANP) to activate particulate guanylyl cyclase. […] Upon combining forskolin with ITI-214 some of the effects of ITI-214 inhibition can be increased. […] However, LIF reverts to LPS-level expression when forskolin is added.
Note that gene expression levels upon addition of PKA or PKG inhibitor to 10 μM ITI-214 are on the order of those relative to LPS treatment alone were reduced to levels equivalent to 3.3 μM ITI-214.

BV2 cells [6] = experiment: Quantitative PCR of inflammatory cytokine mRNA in LPS-treated BV2 cells; format: cell-based, mouse; settings: LPS 10 microgram/ml, Compound 214 10 microgram/ml, FIG. 2
[7] = BV2 cells, 50 ng/ml LPS for 4 hours, 10 μM, FIG. 4b
[8] = BV2 cells, Compound 214 at 10 μM, FIG. 4a
[9] = Striatum Mouse + LPS, initial results
[10] = adult mice, 10 mg/kg i.p., 500 μg/kg LPS s.c. for 2 hours, FIG. 8
[11] = mouse striatum, 10 mg/kg i.p., LPS 500 μg/kg s.c., two hours, FIG. 7

What does the source list for `CN1C(=O)c2c(nn(Cc3ccc(-c4cccc(F)n4)cc3)c2Nc2ccccc2)N2C1=N[C@@H]1CCC[C@@H]12` [Compound 214]?
mRNA transcripts decreased in the presence of LPS + compound vs. LPS alone (BV2 cells [1]; BV2 cells, RNAseq): 138 transcripts; overlap between the Compound 214 and rolipram sets of decreased transcripts (BV2 cells [1]; BV2 cells, RNAseq): 48 transcripts; overlap between the Compound 214 and rolipram sets of elevated transcripts (BV2 cells [1]; BV2 cells, RNAseq): 45 transcripts; transcripts elevated in the presence of LPS + compound vs. LPS alone (BV2 cells [1]; BV2 cells, RNAseq): 149 transcripts; genes affected by both Compound 214 and Rolipram (BV2 cells [1]; further RNASeq analysis): 114 genes; genes significantly affected by this compound but not the other (Compound 214 / Rolipram) (BV2 cells [1]; further RNASeq analysis): 293 genes; overlap of genes affected by Compound 214 and Rolipram (BV2 cells [1]; further RNASeq analysis): about 17%; genes affected by both Compound 214 and Rolipram (BV2 cells [1]; still a further experiment): 683 genes; genes significantly affected by this compound but not the other (Compound 214 / Rolipram) (BV2 cells [1]; still a further experiment): 1240 genes; overlap of genes affected by Compound 214 and Rolipram (BV2 cells [1]; still a further experiment): about half; Chemokine (C-C) motif Ligand 2 expression (Q-PCR) (BV2 cells [2]; BV2 + LPS, initial results): Down; Interleukin 1 beta expression (Q-PCR) (BV2 cells [2]; BV2 + LPS, initial results): Down; Tumor necrosis factor expression (Q-PCR) (BV2 cells [2]; BV2 + LPS, initial results): Down; Ccl2 mRNA signal (BV2 cells [2]; [7]): significantly decreased; IL1β mRNA signal (BV2 cells [2]; [7]): trended downward; TNF mRNA signal (BV2 cells [2]; [7]): significantly decreased; LPS-induced increase in expression of Ccl2 (BV2 cells [2]; [8]): significantly reduces; LPS-induced increase in expression of IL1β (BV2 cells [2]; [8]): significantly reduces; LPS-induced increase in expression of TNFα (BV2 cells [2]; [8]): significantly reduces; LPS-induced changes in proinflammatory markers (BV2 cells [2]; BV2 cells, separate experiment, FIG. 4b, 50 ng/ml LPS for 4 hours): greatly reduces or blunts; LPS-induced increase in expression of IL1β in the hippocampus (mRNA) [3]: suppresses; also recorded: significantly blunts; Chemokine (C-C) motif Ligand 2 expression (Q-PCR) [4, 9]: Down; Oncostatin M expression (Q-PCR) [4, 9]: Down; expression of Ccl2 mRNA in striatum [4, 10]: attenuates; expression of TNF mRNA in striatum [4, 10]: attenuates; levels of IL1-beta mRNA in striatum [4, 10]: trended to lower levels; levels of IL6 mRNA in striatum [4, 10]: trended to lower levels; LPS stimulation of the pro-inflammatory cytokines TNFα, Ccl2, IL-1β, and IL-6 [4, 11]: inhibits; expression of the anti-inflammatory cytokine IL-10 [4, 11]: significantly enhance; LPS-induced inflammatory gene expression changes in mice ([4]; striatal tissue, 10 mg/kg i.p., 2 hours, FIG. 8): prevents; induction of Cx3cr1 by LPS (BV2 cells [5]): significantly reduced; modulation of transcriptional responses to LPS (BV2 cells [5]; 50 ng/ml LPS, 0.1-10 μM, FIG. 10a): dose dependent; ITI-214 responsive transcripts (Cx3cr1, Csf2, TNF, Cc14, MAPKAPK2, PtpN6, Ccr1) with concomitant forskolin (BV2 cells [5]; LPS, 10 μM forskolin, FIG. 11a): further down- or up-modulated; impact of ITI-214 on addition of PKA inhibitor cAMPS-Rp or PKG inhibitor -8-Br-PET-cGMPS (BV2 cells [5]; LPS, inhibitors 100 μM, FIG. 11b): Moderate reduction; basal expression of Cx3cr1 (BV2 cells [5]; in the absence of LPS): significantly reduced; LIF expression (BV2 cells [5]; with LPS, FIG. 11a): further increased; LPS-induced increase in expression of IL1β (mRNA, quantitative PCR) (BV2 cells [6]): suppresses; also recorded: significantly blunts
